According to patent publication US8916517B2, “Analogs of pituitary adenylate cyclase-activating polypeptide (PACAP) and methods for their use” (The Administrators of the Tulane Educational Fund, priority 2009, dated 2014):
“Also recorded” adds a separate entry of the source. Non-standard residues stand in square brackets, D forms with d. No end group written: not given here. Pip = O=C(O)[C@@H]1CCCCN1; Aib = CC(C)(N)C(=O)O

Columns and labels:
[1] = tested on: light-chain immunoglobulin-secreting human multiple myeloma cells; test: Inhibition of proliferation of light-chain immunoglobulin-secreting human multiple myeloma cells (bromodeoxyuridine incorporation); type: cell-based; conditions: inhibition of myeloma cell proliferation
Experimental: FIG. 3 is a table listing the EC50 for the inhibitory effects of PACAP38, PACAP27, VIP, and eight novel PACAP analogs on the proliferation of light-chain immunoglobulin-secreting myeloma cells. The light-chain immunoglobulin-secreting human multiple myeloma cells were cultured in RPMI 1640 medium supplemented with 10% non-inactivated fetal bovine serum and 0.05 mM 2-mercaptoethanol. The effects of PACAP38, PACAP27, VIP, and the eight novel PACAP analogs on myeloma cell proliferation were assessed by determining incorporation of bromodeoxyuridine into DNA during cell division. The number of myeloma cells approximately doubled during the 24-hour incubation period in the absence of treatment with PACAP-like peptides. Five different concentrations, ranging from 10^-13 M to 10^-5 M, were tested for PACAP38, PACAP27, VIP, and each of the eight novel PACAP analogs. The EC50 was calculated from the concentration response curve using the software package Prism (Graph Pad, San Diego, CA). Each value represents the mean of four-six determinations per experiment. The EC50 for PACAP38 is based on the average of four separate experiments, while the EC50 for PACAP27 and [Pip^3,Aib ^16,28,Ala^17,Lys^34,D-LysIPACAP 38 (SEQ ID NO: 4) is based on the average of two separate experiments.
FIG. 4 is a graph showing a representative concentration response curve from a single experiment on the inhibitory effects PACAP38 and six PACAP38 analogs on the proliferation of light-chain immunoglobulin-secreting human myeloma cells. Each value represents the mean plus/minus the standard error of four-six determinations. Note that replacing pipecolic acid in position 3 of the novel analogs with either nipecotic acid or isonipecotic acid results in an analog with more than four orders of magnitude lower inhibitory potency.
The effects of PACAP38, PACAP27, VIP, and PACAP analogs on myeloma cell proliferation were assessed by determining incorporation bromodeoxyuridine into DNA during cell division. […]

[2] = tested on: rat renal proximal tubule epithelial cells; test: Reduction of cisplatin-induced apoptotic cell death of renal proximal tubule epithelial cells (histone-associated DNA fragmentation); type: cell-based; conditions: cisplatin 24 hours, comparable concentrations
[3] = tested on: human myeloma cell line (MM.1 R); test: Proliferation of dexamethasone-resistant myeloma cell line MM.1R (bromodeoxyuridine incorporation); type: cell-based; conditions: FIG. 9
Experimental: FIG. 9 is a graph showing the effects PACAP38, [Pip^3,Ala^14,17,Aib^16,28,Lys^34,D-Lys^38] PACAP38(SEQ ID NO: 6) and dexamethasone on the proliferation of light-chain immunoglobulin-secreting human myeloma cell line (MM.1 R) that was derived from a patient who was being treated for multiple myeloma with a dexamethasome-containing regimen. The light-chain immunoglobulin-secreting multiple myeloma cells were cultured in RPMI 1640 medium supplemented with 10% non-inactivated fetal bovine serum and 0.05mM 2-mercaptoethanol. The effects of dexamethasone, PACAP38 and the novel PACAP38 analog on cell proliferation were assessed by determining the incorporation of bromodeoxyuridine into DNA during cell division. Each value represents the mean plus/minus the standard error of four-six determination. The cell lines in FIGS. 8 and 9 were obtained from the same patient at different stages of the treatment (Greenstein et al., Exp Hematol 31 :271-282, 2003).

[4] = tested on: ischemia/reperfusion injury to the kidney; test: Serum creatinine after renal ischemia/reperfusion injury in mice; type: in vivo, male C57BL/6 mice; conditions: 20 micrograms i.p. 1, 24 and 48 h after start of reperfusion; 45 min renal artery clamping; 72 hours
Experimental: FIG. 6 is a graph showing the effects of PACAP38 and two novel PACAP analogs on serum creatinine levels in mice following ischemia/reperfusion injury to the kidney. The renal artery in male C57BL/6 mice was clamped bilaterally for 45 minutes in all mice except for the sham-operated mice. Twenty micrograms of PACAP38 or one of the PACAP analogs were given intraperitoneally 1 hour after the start of reperfusion and additional doses were given at 24 and 48 hours after the initial dose. The sham-operated group of mice was injected intraperitoneally with PACAP38 on the same schedule as the mice subjected to ischemia/reperfusion. The control group of mice was injected intraperitoneally with the same volume of saline as for the injections of PACAP38 on the same schedule. All of the mice were euthanized 24 hours after the final injection of saline, PACAP38 or one of the novel PACAP analogs. Each value represents the mean plus/minus the standard error of four determinations. **p<0.01 and *p<0.05 compared to the ischemia/reperfusion group treated with saline. I/R, ischemia/reperfusion; sham, sham-operated.

[5] = tested on: human renal proximal tubule epithelial cells; test: Reduction of gentamicin-induced apoptotic cell death of human renal proximal tubule epithelial cells; type: cell-based; conditions: gentamicin 24 hours
Experimental: The inhibitory effects of PACAP38 and the novel PACAP analog on apoptotic cell death was assessed by the quantitative determination of cytoplasmic histone-associated DNA-fragmentation (mono- and oligonucleosomes) after exposure to gentamicin for 24 hours. […] Each value represents the mean plus/minus the standard deviation of four determinations. **p<0.01 and *p<0.05 compared to the group treated only with gentamicin.

Substance | cytoprotective potency compared with PACAP38 [2] | reversal of the rise in serum creatinine caused by ischemia/reperfusion [4] | also measured
PACAP27 |  |  | potency compared with PACAP38 or the novel PACAP38 analogs [1]: significantly less potent
[Pip^3,Ala^14,17,Aib^16,28,Lys^34,D-Lys^38]PACAP38 (HS[Pip]GIFTDSYSRYAK[Aib]AAVKKYLAAVL[Aib]KRYKQKVKN[dK]-NH2; N-terminus assumed; SMILES CC[C@H](C)[C@H](NC(=O)CNC(=O)[C@@H]1CCCCN1C(=O)[C@H](CO)NC(=O)[C@@H](N)Cc1c[nH]cn1)C(=O)N[C@@H](Cc1ccccc1)C(=O)N[C@H](C(=O)N[C@@H](CC(=O)O)C(=O)N[C@@H](CO)C(=O)N[C@@H](Cc1ccc(O)cc1)C(=O)N[C@@H](CO)C(=O)N[C@@H](CCCNC(=N)N)C(=O)N[C@@H](Cc1ccc(O)cc1)C(=O)N[C@@H](C)C(=O)N[C@@H](CCCCN)C(=O)NC(C)(C)C(=O)N[C@@H](C)C(=O)N[C@@H](C)C(=O)N[C@H](C(=O)N[C@@H](CCCCN)C(=O)N[C@@H](CCCCN)C(=O)N[C@@H](Cc1ccc(O)cc1)C(=O)N[C@@H](CC(C)C)C(=O)N[C@@H](C)C(=O)N[C@@H](C)C(=O)N[C@H](C(=O)N[C@@H](CC(C)C)C(=O)NC(C)(C)C(=O)N[C@@H](CCCCN)C(=O)N[C@@H](CCCNC(=N)N)C(=O)N[C@@H](Cc1ccc(O)cc1)C(=O)N[C@@H](CCCCN)C(=O)N[C@@H](CCC(N)=O)C(=O)N[C@@H](CCCCN)C(=O)N[C@H](C(=O)N[C@@H](CCCCN)C(=O)N[C@@H](CC(N)=O)C(=O)N[C@H](CCCCN)C(N)=O)C(C)C)C(C)C)C(C)C)[C@@H](C)O) [SEQ ID NO:6] | either as effective or more effective than PACAP38 | almost completely reversed | sensitivity of cell proliferation [3]: still sensitive
[Pip^3,Ala^15,17,Aib^16,28,Lys^34,D-Lys^38]PACAP38 (HS[Pip]GIFTDSYSRYRA[Aib]AAVKKYLAAVL[Aib]KRYKQKVKN[dK]-NH2; N-terminus assumed; SMILES CC[C@H](C)[C@H](NC(=O)CNC(=O)[C@@H]1CCCCN1C(=O)[C@H](CO)NC(=O)[C@@H](N)Cc1c[nH]cn1)C(=O)N[C@@H](Cc1ccccc1)C(=O)N[C@H](C(=O)N[C@@H](CC(=O)O)C(=O)N[C@@H](CO)C(=O)N[C@@H](Cc1ccc(O)cc1)C(=O)N[C@@H](CO)C(=O)N[C@@H](CCCNC(=N)N)C(=O)N[C@@H](Cc1ccc(O)cc1)C(=O)N[C@@H](CCCNC(=N)N)C(=O)N[C@@H](C)C(=O)NC(C)(C)C(=O)N[C@@H](C)C(=O)N[C@@H](C)C(=O)N[C@H](C(=O)N[C@@H](CCCCN)C(=O)N[C@@H](CCCCN)C(=O)N[C@@H](Cc1ccc(O)cc1)C(=O)N[C@@H](CC(C)C)C(=O)N[C@@H](C)C(=O)N[C@@H](C)C(=O)N[C@H](C(=O)N[C@@H](CC(C)C)C(=O)NC(C)(C)C(=O)N[C@@H](CCCCN)C(=O)N[C@@H](CCCNC(=N)N)C(=O)N[C@@H](Cc1ccc(O)cc1)C(=O)N[C@@H](CCCCN)C(=O)N[C@@H](CCC(N)=O)C(=O)N[C@@H](CCCCN)C(=O)N[C@H](C(=O)N[C@@H](CCCCN)C(=O)N[C@@H](CC(N)=O)C(=O)N[C@H](CCCCN)C(N)=O)C(C)C)C(C)C)C(C)C)[C@@H](C)O) [SEQ ID NO:5] | either as effective or more effective than PACAP38 | almost completely reversed | 
[Pip^3,Aib^16,28,Ala^17,Lys^34,D-Lys^38]PACAP38 (HS[Pip]GIFTDSYSRYRK[Aib]AAVKKYLAAVL[Aib]KRYKQKVKN[dK]-NH2; N-terminus assumed; SMILES CC[C@H](C)[C@H](NC(=O)CNC(=O)[C@@H]1CCCCN1C(=O)[C@H](CO)NC(=O)[C@@H](N)Cc1c[nH]cn1)C(=O)N[C@@H](Cc1ccccc1)C(=O)N[C@H](C(=O)N[C@@H](CC(=O)O)C(=O)N[C@@H](CO)C(=O)N[C@@H](Cc1ccc(O)cc1)C(=O)N[C@@H](CO)C(=O)N[C@@H](CCCNC(=N)N)C(=O)N[C@@H](Cc1ccc(O)cc1)C(=O)N[C@@H](CCCNC(=N)N)C(=O)N[C@@H](CCCCN)C(=O)NC(C)(C)C(=O)N[C@@H](C)C(=O)N[C@@H](C)C(=O)N[C@H](C(=O)N[C@@H](CCCCN)C(=O)N[C@@H](CCCCN)C(=O)N[C@@H](Cc1ccc(O)cc1)C(=O)N[C@@H](CC(C)C)C(=O)N[C@@H](C)C(=O)N[C@@H](C)C(=O)N[C@H](C(=O)N[C@@H](CC(C)C)C(=O)NC(C)(C)C(=O)N[C@@H](CCCCN)C(=O)N[C@@H](CCCNC(=N)N)C(=O)N[C@@H](Cc1ccc(O)cc1)C(=O)N[C@@H](CCCCN)C(=O)N[C@@H](CCC(N)=O)C(=O)N[C@@H](CCCCN)C(=O)N[C@H](C(=O)N[C@@H](CCCCN)C(=O)N[C@@H](CC(N)=O)C(=O)N[C@H](CCCCN)C(N)=O)C(C)C)C(C)C)C(C)C)[C@@H](C)O) [SEQ ID NO:4] | either as effective or more effective than PACAP38 |  | 
[Pip^3]PACAP38 (HS[Pip]GIFTDSYSRYRKQMAVKKYLAAVLGKRYKQRVKNK-NH2; N-terminus assumed; SMILES CC[C@H](C)[C@H](NC(=O)CNC(=O)[C@@H]1CCCCN1C(=O)[C@H](CO)NC(=O)[C@@H](N)Cc1c[nH]cn1)C(=O)N[C@@H](Cc1ccccc1)C(=O)N[C@H](C(=O)N[C@@H](CC(=O)O)C(=O)N[C@@H](CO)C(=O)N[C@@H](Cc1ccc(O)cc1)C(=O)N[C@@H](CO)C(=O)N[C@@H](CCCNC(=N)N)C(=O)N[C@@H](Cc1ccc(O)cc1)C(=O)N[C@@H](CCCNC(=N)N)C(=O)N[C@@H](CCCCN)C(=O)N[C@@H](CCC(N)=O)C(=O)N[C@@H](CCSC)C(=O)N[C@@H](C)C(=O)N[C@H](C(=O)N[C@@H](CCCCN)C(=O)N[C@@H](CCCCN)C(=O)N[C@@H](Cc1ccc(O)cc1)C(=O)N[C@@H](CC(C)C)C(=O)N[C@@H](C)C(=O)N[C@@H](C)C(=O)N[C@H](C(=O)N[C@@H](CC(C)C)C(=O)NCC(=O)N[C@@H](CCCCN)C(=O)N[C@@H](CCCNC(=N)N)C(=O)N[C@@H](Cc1ccc(O)cc1)C(=O)N[C@@H](CCCCN)C(=O)N[C@@H](CCC(N)=O)C(=O)N[C@@H](CCCNC(=N)N)C(=O)N[C@H](C(=O)N[C@@H](CCCCN)C(=O)N[C@@H](CC(N)=O)C(=O)N[C@@H](CCCCN)C(N)=O)C(C)C)C(C)C)C(C)C)[C@@H](C)O) [SEQ ID NO:12] |  |  | cytoprotective potency, PACAP38 versus [Pip^3]PACAP38 [5]: less potent than PACAP38; reduction in gentamicin-induced apoptotic cell death ([5]; various concentrations): significant dose-dependent reduction; also recorded: dose-dependent inhibition
